ChEMBL document CHEMBL3784953, “A homology modelling-driven study leading to the discovery of the first mouse trace amine-associated receptor 5 (TAAR5) antagonists” (Medchemcomm, 2016)

What was measured:
[1] = target: T1, Trace amine-associated receptor 5 (Mus musculus, UniProt Q5QD14); assay: Antagonist activity at mouse TAAR5 expressed in HEK293 cells assessed as inhibition of agonist induced cAMP release preincubated for 5 mins followed by addition of agonist by BRET assay; format: functional, cell-based
T1 sequence (Q5QD14 whole entry): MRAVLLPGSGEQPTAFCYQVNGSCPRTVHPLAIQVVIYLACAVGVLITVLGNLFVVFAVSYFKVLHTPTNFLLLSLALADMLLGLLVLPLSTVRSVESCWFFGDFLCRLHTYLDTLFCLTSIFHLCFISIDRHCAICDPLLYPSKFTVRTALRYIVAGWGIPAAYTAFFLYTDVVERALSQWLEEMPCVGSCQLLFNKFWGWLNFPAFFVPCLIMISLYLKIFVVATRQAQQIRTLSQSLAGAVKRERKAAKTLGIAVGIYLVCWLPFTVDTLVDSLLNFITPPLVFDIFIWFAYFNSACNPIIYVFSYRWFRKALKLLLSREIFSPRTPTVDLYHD

[2] = target: Trace amine-associated receptor 1 (Mus musculus, UniProt Q923Y8); assay: Antagonist activity at mouse TAAR1 expressed in HEK293 cells assessed as inhibition of agonist induced cAMP release preincubated for 5 mins followed by addition of agonist by BRET assay; format: functional, cell-based
Mus musculus = species on record: Mus musculus; assay: Selectivity ratio of IC50 for mouse TAAR1 to IC50 for mouse TAAR5
[3] = target: T1, Trace amine-associated receptor 5; assay: (§1) Agonist activity at mouse TAAR5 expressed in HEK293 cells assessed as increase in cAMP release after 30 mins by BRET assay relative to control; format: functional, cell-based
[4] = target: T2, Trace amine-associated receptor 1 (Homo sapiens) (UniProt Q96RJ0); assay: Agonist activity at human TAAR1 expressed in HEK293 cells assessed as increase in cAMP release after 30 mins by BRET assay; format: functional, cell-based
T2 sequence (whole entry): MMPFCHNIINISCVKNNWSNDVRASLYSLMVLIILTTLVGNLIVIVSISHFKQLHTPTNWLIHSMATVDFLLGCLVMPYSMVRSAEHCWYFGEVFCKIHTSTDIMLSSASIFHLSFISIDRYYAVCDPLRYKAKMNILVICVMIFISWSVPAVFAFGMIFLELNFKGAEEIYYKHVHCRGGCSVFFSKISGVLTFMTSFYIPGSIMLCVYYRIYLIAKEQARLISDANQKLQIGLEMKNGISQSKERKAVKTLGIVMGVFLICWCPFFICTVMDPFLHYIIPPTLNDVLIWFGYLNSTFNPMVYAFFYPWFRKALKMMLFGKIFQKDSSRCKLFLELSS

[5] = target: T3, Trace amine-associated receptor 5 (Mus musculus) (UniProt Q5QD14); assay: as §1; format: functional, cell-based
T3 sequence (whole entry): T1 sequence (Q5QD14 whole entry)

Sequence of Trace amine-associated receptor 1 (Q923Y8 whole entry, the tested form may be a part): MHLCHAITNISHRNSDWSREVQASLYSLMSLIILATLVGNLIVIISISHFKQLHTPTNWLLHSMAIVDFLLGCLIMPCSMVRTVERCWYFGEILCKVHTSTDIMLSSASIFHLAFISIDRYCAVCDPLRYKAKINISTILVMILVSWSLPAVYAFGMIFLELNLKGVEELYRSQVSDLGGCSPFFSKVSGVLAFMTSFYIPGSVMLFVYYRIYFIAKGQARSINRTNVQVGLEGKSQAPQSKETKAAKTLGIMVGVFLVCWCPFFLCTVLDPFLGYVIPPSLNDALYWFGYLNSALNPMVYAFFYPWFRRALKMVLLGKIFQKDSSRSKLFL

Question: How did the IC50 [1] turn out when `COc1ccccc1N1CCN(CC2CCC(c3ccccc3)(c3ccccc3)O2)CC1` (stereo not drawn) was run?
Answer: 4.8 µM

Question: And the IC50 [2]?
Answer: > 100 µM

Question: What about the Ratio IC50 (Mus musculus) of the same compound?
Answer: > 20

Question: For `CN(C)C` [TRIMETHYLAMMONIUM], which EC50 [3] is on record?
Answer: 2.1 µM

Question: Which fold change (FC) [4] does the source give for `NCCc1ccc(Oc2ccc(O)cc2)c(I)c1` here?
Answer: 16

Question: What about the fold change (FC) [5] of the same compound?
Answer: 2

Question: Which results are given for `COc1ccccc1OCCNCC1CCC(c2ccccc2)(c2ccccc2)O1` (stereo not drawn)?
Answer: IC50 [1]: 29 µM; IC50 [2]: > 100 µM
